For 37 compounds, IC50 and EC50 results are on record in patent publication US11414384B2, “P300/CBP hat inhibitors” (Constellation Pharmaceuticals, Inc., priority 2018, dated 2022).

Bounds are passed on as bounds.

Test [1] has as its target p300 HAT domain (residues 1287-1666) (Homo sapiens (Human), UniProt Q09472). Kind of test: p300 HAT SPA assay (scintillation proximity assay, acetylation of biotinylated H3(1-21) peptide). Type of test: biochemical. The following applies: p300 HAT domain; average of at least 2 replicate titrations; read-out: P300 HAT SPA IC50. In short, it runs like this:
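Purified p300 HAT domain reaction transferred to streptavidin plates to capture biotinylated H3(1-21) peptide, incubated 1.5 hr at RT, and read by scintillation proximity. IC50 values derived from concentration-response data.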
A general note: Scintillation proximity formats need no separation of bound from free tracer.

Test [2] concerns acetylation of chromatin at H3K18 (catalyzed by p300 and CBP) in HCT-116 cells. Briefly: H3K18Ac MSD cellular assay. Type of test: cell-based. As to conditions: 2 hr treatment, average of at least 2 replicate titrations. On the procedure:
Select compounds were also evaluated in a H3K18Ac MSD cellular assay that measures the ability of compounds to inhibit the acetylation of chromatin at H3K18, a process catalyzed by p300 and CBP. In a typical experiment the p300 HAT inhibitory activity inside cells of the compounds described herein was determined in accordance with the following experimental method. 20 k HCT-116 cells per well are plated in 75 μL RPMI+10% FBS media the night before treatment. Compounds plated in DMSO at 4× final concentration are resuspended in 30 μL RPMI+10% FBS, then 25 μL is combined with corresponding wells containing cells. Treated cells are incubated for 2 hr at 37° C., then lysed in 500 μL final volume and frozen at −80° C. MSD plates (Meso Scale Discovery) are coated overnight at 4° C. with 60 μL 1:500α-total histone antibody (Millipore MAB3422) in PBS. Plates are then blocked with 5% BSA in TBST shaking at RT for 1 hr, washed, and 30 μL lysate added to each well for 2 hr shaking at RT. Plates are washed and 25 μL 1:216α-H3K18ac antibody (CST 9675) in PBS added, then incubated for 1 hr shaking at RT. Plates are washed again, then 25 μL 1:1000 Sulfo-Tag goat a-rabbit antibody (Meso Scale Discovery R32Ab-1) in PBS is added for 1 hr shaking at RT. Plates are washed once more, then 150 μL 1× Read Buffer (MSD #R92TD-3) is added to all wells and read on MSD SECTOR Imager 2400 using the conventional read setup.

p300 HAT domain (residues 1287-1666), sequence (Q09472 1287-1666): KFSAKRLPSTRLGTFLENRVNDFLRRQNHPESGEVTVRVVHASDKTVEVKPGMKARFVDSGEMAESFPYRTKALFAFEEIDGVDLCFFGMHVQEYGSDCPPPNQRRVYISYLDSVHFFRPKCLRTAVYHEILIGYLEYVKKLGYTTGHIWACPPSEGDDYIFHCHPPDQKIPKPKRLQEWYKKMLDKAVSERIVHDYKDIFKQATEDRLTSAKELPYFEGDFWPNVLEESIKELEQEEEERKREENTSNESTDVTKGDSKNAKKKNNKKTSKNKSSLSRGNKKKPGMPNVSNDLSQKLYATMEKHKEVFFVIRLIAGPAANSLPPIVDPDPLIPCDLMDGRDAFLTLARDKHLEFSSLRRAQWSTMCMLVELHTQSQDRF

As usually defined, the IC50 is the concentration needed to halve the response being measured. By EC50 is commonly meant the concentration at which the effect is half-maximal. A higher EC50 goes with a less potent agent. In the case of `CCC(CNC(C(=O)c1c[nH]c2ccccc12)c1ccccc1)c1ccc(Cl)cc1` (single isomer, unassigned) [59 Isomer 4], the half-inhibitory concentration (IC50) in test [1] came out at 0.827 µM. In test [2] (Homo sapiens, HCT-116, 2 h), this compound came in with an EC50 of 0.829 µM.
Regarding `CC(=O)N1CCC(c2ccc3c(C(=O)C(NCCc4ccc(Cl)cc4)c4ccccc4)c[nH]c3c2)CC1` (single isomer, unassigned) [65 Isomer 2], the IC50 in test [1] came out at 0.422 µM. In test [2] (Homo sapiens, HCT-116, 2 h), this compound had an EC50 of 0.0717 µM.
Consider `Cn1cc(-c2ccc3c(C(=O)C(NCCc4ccc(S(N)(=O)=O)cc4)c4ccccc4)c[nH]c3c2)cn1` (single isomer, unassigned) [66 Isomer 2], for which, in test [1], the IC50 was determined as 0.281 µM. Besides, the EC50 in test [2] (Homo sapiens, HCT-116, 2 h) is 0.0433 µM.
As to `Cc1cccc2c(C(=O)C(NC(C)Cc3ccc(Cl)cc3Cl)c3ccccc3)c[nH]c12` (single isomer, unassigned) [68 Isomer 1], the half-maximal inhibitory concentration (IC50) in test [1] was determined as 0.728 µM. In test [2] (Homo sapiens, HCT-116, 2 h), this compound came in with an EC50 of 0.666 µM.
Take `O=C(c1c[nH]c2cc(-c3ccncc3)ccc12)C(NCCc1ccc(F)cc1)c1ccccc1` (single isomer, unassigned) [82 Isomer 1]: in test [1], the IC50 was greater than 30 µM. In test [2], this compound showed an EC50 of 1.61 µM.
Regarding `Cn1cc(-c2ccc3c(C(=O)C(NCCc4ccc(Cl)cc4)c4ccccc4)c[nH]c3c2)cn1` (single isomer, unassigned) [83 Isomer 2], the IC50 in test [1] amounted to 0.247 µM. Besides, in test [2] (Homo sapiens, HCT-116, 2 h), a half-maximal effect (EC50) was put at 0.0747 µM.
Consider `Cn1cc(-c2ccc3c(C(=O)C(NCCc4ccc(F)cc4F)c4ccccc4)c[nH]c3c2)cn1` (single isomer, unassigned) [85 Isomer 2], for which the IC50 in test [1] stood at 0.826 µM. This compound also had an EC50 in test [2] (Homo sapiens, HCT-116, 2 h) of 0.0926 µM.
For `CCn1cc(-c2ccc3c(C(=O)C(NCCc4ccc(Cl)cc4)c4ccccc4)c[nH]c3c2)cn1` (single isomer, unassigned) [86 Isomer 2], the IC50 in test [1] stood at 0.332 µM. In test [2] (Homo sapiens, HCT-116, 2 h), this compound returned an EC50 of 0.116 µM.
Taken in the same sequence, the figures for `Cc1ccc(-c2ccc3c(C(=O)C(NCCc4ccc(Cl)cc4)c4ccccc4)c[nH]c3c2)cn1` (single isomer, unassigned) [88 Isomer 2] were 0.603 µM and 0.379 µM.
`O=C(c1c[nH]c2cc(-c3cccnc3)ccc12)C(NCCc1ccc(Cl)cc1)c1ccccc1` (single isomer, unassigned) [90 Isomer 2]: in test [1], the IC50 worked out at 0.591 µM. The same compound gave an EC50 in test [2] (Homo sapiens, HCT-116, 2 h) of 0.08 µM.
For `CC(Cc1ccc(Cl)cc1)NC(C(=O)c1c[nH]c2cc(-c3cnn(C)c3)ccc12)c1ccccc1` (single isomer, unassigned) [92 Isomer 3], the IC50 in test [1] is 0.164 µM. In test [2] (Homo sapiens, HCT-116, 2 h), this compound returned an EC50 of 0.109 µM.
For the compound `N#Cc1ccc(CCNC(C(=O)c2c[nH]c3cc(-c4cnn(CCO)c4)ccc23)c2ccccc2)cc1` (single isomer, unassigned) [95 Isomer 2], the 50% inhibitory concentration (IC50) in test [1] stood at 0.046 µM. This compound yielded an EC50 in test [2] (Homo sapiens, HCT-116, 2 h) of 0.0612 µM.
As for `COCCn1cc(-c2ccc3c(C(=O)C(NCCc4ccc(C#N)cc4)c4ccccc4)c[nH]c3c2)cn1` (single isomer, unassigned) [96 Isomer 2], the IC50 in test [1] stood at 0.062 µM. In test [2] (Homo sapiens, HCT-116, 2 h), this compound had an EC50 of 0.0264 µM.
With `CC(Cc1ccc(Cl)cc1Cl)NC(C(=O)c1c[nH]c2cc(-c3cnn(C)c3)ccc12)c1ccccc1` (single isomer, unassigned) [97 Isomer 1], in test [1], the IC50 was 0.437 µM. Also, in test [2], the response was half-maximal at 0.135 µM (EC50).
Turning to `CC(Cc1ccc(Cl)cc1Cl)NC(C(=O)c1c[nH]c2cc(-c3cnn(C)c3)ccc12)c1ccccc1` (single isomer, unassigned) [97 Isomer 2], in test [1], the IC50 worked out at 6.26 µM. The compound further displayed an EC50 in test [2] of 0.78 µM.
Taken in the same sequence, the figures for `CC(Cc1ccc(Cl)cc1Cl)NC(C(=O)c1c[nH]c2cc(-c3cnn(C)c3)ccc12)c1ccccc1` (single isomer, unassigned) [97 Isomer 3] were greater than 30 µM and greater than 10 µM.
Taken in the same sequence, the figures for `CC(Cc1ccc(Cl)cc1Cl)NC(C(=O)c1c[nH]c2cc(-c3cnn(C)c3)ccc12)c1ccccc1` (single isomer, unassigned) [97 Isomer 4] were 6.71 µM and greater than 10 µM.
As for `N#Cc1ccc(CCNC(C(=O)c2c[nH]c3cc(-c4cn[nH]c4)ccc23)c2ccccc2)cc1` (single isomer, unassigned) [98 Isomer 2], the IC50 in test [1] is 0.0583 µM. This compound also registered an EC50 in test [2] (Homo sapiens, HCT-116, 2 h) of 0.0186 µM.
For the compound `N#Cc1ccc(CCNC(C(=O)c2cnn3cc(-c4cn[nH]c4)ccc23)c2ccccc2)cc1` (single isomer, unassigned) [99 Isomer 2], the IC50 in test [1] was determined as 0.0156 µM. The compound also displayed an EC50 in test [2] (Homo sapiens, HCT-116, 2 h) of 0.0216 µM.
Taken in the same sequence, the figures for `Cn1cc(-c2ccc3c(C(=O)C(NCCc4ccc(S(N)(=O)=O)cc4)c4ccccc4)cnn3c2)cn1` (single isomer, unassigned) [101 Isomer 2] were 0.0592 µM and 0.0471 µM.
As for `Cn1cc(-c2ccc3c(C(=O)C(NCCc4ccc(C#N)cc4)c4ccccc4)c[nH]c3c2F)cn1` (single isomer, unassigned) [103 Isomer 2], the IC50 in test [1] worked out at 0.118 µM. In test [2] (Homo sapiens, HCT-116, 2 h), this compound gave an EC50 of 0.0685 µM.
Consider `O=C(c1c[nH]c2cc(-c3ccccn3)ccc12)C(NCCc1ccc(Cl)cc1)c1ccccc1` (single isomer, unassigned) [108 Isomer 1], for which the IC50 in test [1] amounted to 1.6 µM. Moreover, the EC50 in test [2] (Homo sapiens, HCT-116, 2 h) was 0.928 µM.
For the compound `Cc1cnc(-c2ccc3c(C(=O)C(NCCc4ccc(Cl)cc4)c4ccccc4)c[nH]c3c2)[nH]1` (single isomer, unassigned) [109 Isomer 2], the IC50 in test [1] was found to be 0.195 µM. Besides, in test [2] (Homo sapiens, HCT-116, 2 h), the EC50 was 0.267 µM.
Consider `Cc1ncc(-c2ccc3c(C(=O)C(NCCc4ccc(Cl)cc4)c4ccccc4)c[nH]c3c2)[nH]1` (single isomer, unassigned) [110 Isomer 2], for which, in test [1], the IC50 amounted to 0.258 µM. The midpoint of the response in test [2] (Homo sapiens, HCT-116, 2 h), the EC50, lay at 0.308 µM.
For `O=C(c1c[nH]c2cc(-c3cccnn3)ccc12)C(NCCc1ccc(Cl)cc1)c1ccccc1` (single isomer, unassigned) [112 Isomer 2], the IC50 in test [1] was 0.136 µM. The compound also showed an EC50 in test [2] (Homo sapiens, HCT-116, 2 h) of 0.0426 µM.
As to `Cn1cnc(-c2ccc3c(C(=O)C(NCCc4ccc(C#N)cc4)c4ccccc4)c[nH]c3c2)c1` (single isomer, unassigned) [113 Isomer 2], in test [1], the IC50 stood at 0.028 µM. A half-maximal response in test [2] (Homo sapiens, HCT-116, 2 h) (EC50) required 0.0342 µM.
Take `Cn1cc(-c2ccc3c(C(=O)C(NCCc4ccc(C#N)cc4)c4ccccc4)c[nH]c3c2)nn1` (single isomer, unassigned) [114 Isomer 2]: the IC50 in test [1] worked out at 0.019 µM. The EC50 in test [2] (Homo sapiens, HCT-116, 2 h) came out at 0.0926 µM.
As for `Cn1cnc(-c2ccc3c(C(=O)C(NCCc4ccc(S(N)(=O)=O)cc4)c4ccccc4)c[nH]c3c2)c1` (single isomer, unassigned) [115 Isomer 2], the IC50 in test [1] amounted to 0.389 µM. In test [2] (Homo sapiens, HCT-116, 2 h), the EC50 turned out to be 0.53 µM.
Take `Cn1cc(-c2ccc3c(C(=O)C(NCCc4ccc(S(N)(=O)=O)cc4)c4ccccc4)c[nH]c3c2)nn1` (single isomer, unassigned) [116 Isomer 2]: the IC50 in test [1] came out at 0.413 µM. Besides, the response in test [2] (Homo sapiens, HCT-116, 2 h) was half-maximal at 0.148 µM (EC50).
Consider `NS(=O)(=O)c1ccc(CCNC(C(=O)c2c[nH]c3cc(-n4ccnc4)ccc23)c2ccccc2)cc1` (single isomer, unassigned) [119 Isomer 2], for which the IC50 in test [1] was determined as 0.58 µM. Besides, a half-maximal effect in test [2] (Homo sapiens, HCT-116, 2 h) (EC50) was put at 0.232 µM.
For `N#Cc1ccc(CCNC(C(=O)c2c[nH]c3cc(-n4ccnc4)ccc23)c2ccccc2)cc1` (single isomer, unassigned) [120 Isomer 1], the IC50 in test [1] is 0.987 µM. This compound yielded a concentration for a half-maximal effect (EC50) in test [2] of 0.193 µM.
In the case of `N#Cc1ccc(CCNC(C(=O)c2c[nH]c3cc(-n4ccnc4)ccc23)c2ccccc2)cc1` (single isomer, unassigned) [120 Isomer 2], the IC50 in test [1] turned out to be 0.172 µM. The compound further returned an EC50 in test [2] of 0.0731 µM.
With `CN1CCN(c2ccc3c(C(=O)C(NCCc4ccc(C#N)cc4)c4ccccc4)c[nH]c3n2)CC1` (single isomer, unassigned) [121 Isomer 2], in test [1], the IC50 was found to be 0.082 µM. For the same compound, a half-maximal response in test [2] (Homo sapiens, HCT-116, 2 h) (EC50) required 0.122 µM.
For the compound `CN1CCN(c2ccc3c(C(=O)C(NCCc4ccc(C#N)cc4)c4ccccc4)c[nH]c3c2)CC1` (single isomer, unassigned) [122 Isomer 2], the IC50 in test [1] came to 0.044 µM. Moreover, in test [2] (Homo sapiens, HCT-116, 2 h), the EC50 stood at 0.0975 µM.
As to `CN1CCN(c2ccc3c(C(=O)C(NCCc4ccc(S(N)(=O)=O)cc4)c4ccccc4)c[nH]c3c2)CC1` (single isomer, unassigned) [124 Isomer 2], the IC50 in test [1] is 0.566 µM. Besides, a half-maximal effect in test [2] (Homo sapiens, HCT-116, 2 h) (EC50) was put at 0.429 µM.
Taken in the same sequence, the figures for `CNC(=O)c1ccc(CCN[C@H](C(=O)c2c[nH]c3cc(-c4cnn(C)c4)ccc23)c2ccccc2)cc1` (single isomer, unassigned) [131 Isomer 2] were 1.29 µM and 0.101 µM.
As for `Cn1cc(-c2ccc3c(C(=O)C(NCCc4ccc(C(N)=O)cc4)c4ccccc4)c[nH]c3c2)cn1` (single isomer, unassigned) [139 Isomer 2], in test [1], the IC50 is 0.511 µM. In test [2] (Homo sapiens, HCT-116, 2 h), this compound returned a concentration giving a half-maximal response (EC50) of 0.0534 µM.
